Measurements reported in ChEMBL document CHEMBL1201862, “PubChem BioAssay data set” (2004).
Active and inactive are the calls of the source.

How the values were obtained:
Cytochrome P450 2D6 = Cytochrome P450 2D6 (Homo sapiens, UniProt P10635);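 further: CYP2D6 member of a cytochrome P450 panel assay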
Cytochrome P450 2C9 = Cytochrome P450 2C9 (Homo sapiens, UniProt P11712)
[1] = molecular target: Epstein-Barr nuclear antigen 1 (Epstein-Barr virus (strain B95-8) (HHV-4) (Human herpesvirus 4), UniProt P03211); assay: EBNA-1 inhibitors, dose response, biochemical, fluorescence polarization, 1536-well (AID 2381); design: species or system human gammaherpesvirus 4;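 further: fluorescence polarization of a Cy5 DNA probe bound by EBNA-1 protein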
Epstein-Barr nuclear antigen 1, sequence (P03211 whole entry): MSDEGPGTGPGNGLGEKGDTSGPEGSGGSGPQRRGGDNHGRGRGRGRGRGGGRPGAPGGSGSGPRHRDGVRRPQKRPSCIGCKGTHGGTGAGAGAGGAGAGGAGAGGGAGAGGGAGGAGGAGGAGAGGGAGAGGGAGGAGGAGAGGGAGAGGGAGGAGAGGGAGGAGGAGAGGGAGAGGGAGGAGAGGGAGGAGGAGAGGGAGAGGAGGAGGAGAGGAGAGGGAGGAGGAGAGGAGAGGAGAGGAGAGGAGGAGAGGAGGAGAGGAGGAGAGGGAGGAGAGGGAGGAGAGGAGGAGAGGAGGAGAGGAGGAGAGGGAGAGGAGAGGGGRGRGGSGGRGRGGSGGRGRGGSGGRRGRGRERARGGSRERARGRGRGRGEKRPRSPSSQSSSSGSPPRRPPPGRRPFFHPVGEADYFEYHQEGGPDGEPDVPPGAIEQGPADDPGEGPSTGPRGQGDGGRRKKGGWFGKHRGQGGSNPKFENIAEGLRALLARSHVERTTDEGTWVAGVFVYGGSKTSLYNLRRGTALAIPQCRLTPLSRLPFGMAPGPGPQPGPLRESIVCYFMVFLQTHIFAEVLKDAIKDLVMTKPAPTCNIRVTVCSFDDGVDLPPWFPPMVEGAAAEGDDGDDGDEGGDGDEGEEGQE

[2] = molecular target: Lytic switch protein BZLF1 (Epstein-Barr virus (strain B95-8) (HHV-4) (Human herpesvirus 4), UniProt P03206); assay: EBV ZTA inhibitors, dose response, counter-screen for EBNA-1 inhibitor project, biochemical, fluorescence polarization, Epstein-Barr virus, 1536-well (AID 2377); design: species or system human gammaherpesvirus 4;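 further: fluorescence polarization of Cy5-labelled ZRE DNA probe bound by purified Zta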
Lytic switch protein BZLF1, sequence (P03206 whole entry): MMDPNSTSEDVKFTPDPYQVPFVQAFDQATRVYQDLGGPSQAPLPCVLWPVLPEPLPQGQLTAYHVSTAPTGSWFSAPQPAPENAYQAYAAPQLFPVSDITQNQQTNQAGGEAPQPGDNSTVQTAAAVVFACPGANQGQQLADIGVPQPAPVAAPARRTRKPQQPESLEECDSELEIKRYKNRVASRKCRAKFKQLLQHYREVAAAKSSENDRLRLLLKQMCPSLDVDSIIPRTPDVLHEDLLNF

[3] = molecular target: Mothers against decapentaplegic homolog 3 (Homo sapiens, UniProt P84022); assay: SMAD3 transcription factor inhibitors, dose response (AID 715); format: functional
Mothers against decapentaplegic homolog 3, sequence (P84022 whole entry): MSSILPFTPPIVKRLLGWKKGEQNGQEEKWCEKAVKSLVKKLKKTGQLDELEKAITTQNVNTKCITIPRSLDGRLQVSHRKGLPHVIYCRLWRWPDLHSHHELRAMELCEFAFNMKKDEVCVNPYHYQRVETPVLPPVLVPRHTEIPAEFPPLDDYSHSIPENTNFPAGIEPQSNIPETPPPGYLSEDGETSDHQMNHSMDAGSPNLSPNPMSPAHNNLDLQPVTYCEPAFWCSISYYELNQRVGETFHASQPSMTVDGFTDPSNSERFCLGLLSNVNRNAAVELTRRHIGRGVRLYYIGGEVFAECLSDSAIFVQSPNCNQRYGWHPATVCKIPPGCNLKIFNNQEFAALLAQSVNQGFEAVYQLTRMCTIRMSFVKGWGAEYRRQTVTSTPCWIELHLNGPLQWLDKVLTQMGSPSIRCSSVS

NADPH oxidase 1 = NADPH oxidase 1 (Homo sapiens, UniProt Q9Y5S8); format: functional, cell-based;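 further: Cell-based assay with luminescence read-out, IC50 derived from inhibitor dose-response curves; intracellular ROS from endogenous NOX1 in intact HT29 colon cancer cells; potency of inhibitors that lower the ROS luminescence signal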
NADPH oxidase 1, sequence (Q9Y5S8 whole entry): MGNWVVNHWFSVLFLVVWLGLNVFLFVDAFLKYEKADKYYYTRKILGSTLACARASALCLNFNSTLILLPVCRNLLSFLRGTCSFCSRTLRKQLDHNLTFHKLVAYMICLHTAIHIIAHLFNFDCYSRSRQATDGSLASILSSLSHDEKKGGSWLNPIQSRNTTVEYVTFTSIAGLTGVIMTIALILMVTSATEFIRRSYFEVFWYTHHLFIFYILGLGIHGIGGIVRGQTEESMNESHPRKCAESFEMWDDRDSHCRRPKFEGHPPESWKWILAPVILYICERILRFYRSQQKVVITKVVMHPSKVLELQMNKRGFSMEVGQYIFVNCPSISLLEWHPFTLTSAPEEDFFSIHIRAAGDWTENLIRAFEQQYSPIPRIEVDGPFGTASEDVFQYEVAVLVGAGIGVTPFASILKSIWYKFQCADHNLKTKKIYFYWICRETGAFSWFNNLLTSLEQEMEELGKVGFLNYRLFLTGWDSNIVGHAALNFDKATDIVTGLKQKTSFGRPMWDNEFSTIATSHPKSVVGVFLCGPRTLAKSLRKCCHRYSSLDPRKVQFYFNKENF

Bcl-2-related protein A1 [4] = molecular target: T1, Bcl-2-related protein A1 (Mus musculus, UniProt Q07440); assay: Bfl-1 inhibitors, primary screen, biochemical, fluorescence polarization, FITC-Bid, mouse (AID 432)
T1 sequence (Q07440 whole entry): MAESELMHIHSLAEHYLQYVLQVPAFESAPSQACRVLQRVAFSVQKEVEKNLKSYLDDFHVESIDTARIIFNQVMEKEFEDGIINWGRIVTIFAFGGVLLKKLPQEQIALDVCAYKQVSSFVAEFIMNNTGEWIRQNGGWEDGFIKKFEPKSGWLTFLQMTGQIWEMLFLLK

Bcl-2-related protein A1 [5] = molecular target: T1, Bcl-2-related protein A1; assay: Bfl-1 inhibitors blocking BH3 peptide binding, confirmation, biochemical, TR-FRET, mouse Bfl-1 (AID 621);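 further: TR-FRET binding of GST-Bfl-1 to FITC-labelled Bid peptide via terbium antibody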
[6] = molecular target: Sphingosine 1-phosphate receptor 2 (Homo sapiens, UniProt O95136); assay: Dose Response Cell Based Assay for Agonists of the S1P2 Receptor of Purchased Analogues. [Related pubchem assays: 729, 843, 854, 736 ]; format: functional
Sphingosine 1-phosphate receptor 2, sequence (O95136 whole entry): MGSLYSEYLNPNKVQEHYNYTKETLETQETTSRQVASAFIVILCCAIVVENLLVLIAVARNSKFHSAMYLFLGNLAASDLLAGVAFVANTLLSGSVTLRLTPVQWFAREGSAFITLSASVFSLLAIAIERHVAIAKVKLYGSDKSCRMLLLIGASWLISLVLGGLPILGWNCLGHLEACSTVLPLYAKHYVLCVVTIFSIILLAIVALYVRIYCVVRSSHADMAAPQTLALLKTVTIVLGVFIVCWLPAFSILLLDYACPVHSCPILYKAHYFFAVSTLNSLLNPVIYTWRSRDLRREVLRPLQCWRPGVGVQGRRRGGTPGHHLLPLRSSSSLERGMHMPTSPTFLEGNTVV

[7] = Luminescence Cell-Based Dose Response to Identify Activators of 5'UTR Stem-Loop Driven Prion Protein mRNA Translation in H4-C Neuroglioblastoma Cells. [Related pubchem assays: 1829 (Project Summary), 1814 (Primary HTS)]; format: functional
[8] = Luminescence Cell-Based Dose Response HTS to Identify Activators of Luciferase Translation or Activity in H4 […] Cells. [Related pubchem assays: 1829 (Project Summary), 1814 (Primary HTS)]; format: functional
[9] = Luminescence Cell-Based Dose Confirmation HTS to Identify Activators of 5'UTR Stem-Loop Driven Alpha-Synuclein mRNA Translation in H4 Neuroglioblastoma Cells. [Related pubchem assays: 1829 (Project Summary), 1814 (Primary HTS)]; format: functional
[10] = Luminescence Cell-Based Dose Response to Identify Activators of Luciferase Translation or Activity in H4-C Neuroglioblastoma Cells. [Related pubchem assays: 1829 (Project Summary), 1814 (Primary HTS)]; format: functional
[11] = Luminescence Cell-Based Dose Confirmation to Identify Activators of 5'UTR Stem-Loop Driven Alpha-Synuclein mRNA Translation in H4 Neuroglioblastoma Cells. [Related pubchem assays: 1829 (Project Summary), 1814 (Primary HTS)]; format: functional
H4 = assay: Luminescence Cell-Based Dose Response HTS to Identify Activators of 5'UTR Stem-Loop Driven Prion Protein mRNA Translation in H4 Neuroglioblastoma Cells. [Related pubchem assays: 1829 (Project Summary), 1814 (Primary HTS)]; format: functional; settings: Homo sapiens
[12] = molecular target: T2, Sentrin-specific protease 8 (Homo sapiens, UniProt Q96LD8); format: functional
T2 sequence (Q96LD8 whole entry): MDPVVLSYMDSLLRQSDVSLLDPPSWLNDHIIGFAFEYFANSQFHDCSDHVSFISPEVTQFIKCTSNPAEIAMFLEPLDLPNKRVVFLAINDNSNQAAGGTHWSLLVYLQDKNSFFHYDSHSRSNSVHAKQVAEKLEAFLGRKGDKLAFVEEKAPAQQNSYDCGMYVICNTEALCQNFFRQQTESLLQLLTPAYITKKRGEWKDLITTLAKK

SUMO-activating enzyme [13] = molecular target: T3, SUMO-activating enzyme (Homo sapiens, UniProt Q9UBT2); assay: SUMOylation inhibitor hit validation, confirmation, SUMOylation inhibitor project, biochemical, AlphaScreen (AID 2018); format: functional
T3 sequence (Q9UBE0 whole entry): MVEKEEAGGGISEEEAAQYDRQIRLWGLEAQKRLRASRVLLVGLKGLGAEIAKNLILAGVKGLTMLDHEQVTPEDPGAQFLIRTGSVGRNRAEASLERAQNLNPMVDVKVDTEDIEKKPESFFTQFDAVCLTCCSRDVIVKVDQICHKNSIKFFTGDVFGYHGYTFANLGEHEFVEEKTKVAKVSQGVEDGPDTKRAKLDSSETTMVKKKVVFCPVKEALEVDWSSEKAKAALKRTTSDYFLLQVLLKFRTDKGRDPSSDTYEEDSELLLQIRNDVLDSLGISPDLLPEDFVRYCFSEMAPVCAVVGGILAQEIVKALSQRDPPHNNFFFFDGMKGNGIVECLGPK
T3 sequence (Q9UBT2 whole entry): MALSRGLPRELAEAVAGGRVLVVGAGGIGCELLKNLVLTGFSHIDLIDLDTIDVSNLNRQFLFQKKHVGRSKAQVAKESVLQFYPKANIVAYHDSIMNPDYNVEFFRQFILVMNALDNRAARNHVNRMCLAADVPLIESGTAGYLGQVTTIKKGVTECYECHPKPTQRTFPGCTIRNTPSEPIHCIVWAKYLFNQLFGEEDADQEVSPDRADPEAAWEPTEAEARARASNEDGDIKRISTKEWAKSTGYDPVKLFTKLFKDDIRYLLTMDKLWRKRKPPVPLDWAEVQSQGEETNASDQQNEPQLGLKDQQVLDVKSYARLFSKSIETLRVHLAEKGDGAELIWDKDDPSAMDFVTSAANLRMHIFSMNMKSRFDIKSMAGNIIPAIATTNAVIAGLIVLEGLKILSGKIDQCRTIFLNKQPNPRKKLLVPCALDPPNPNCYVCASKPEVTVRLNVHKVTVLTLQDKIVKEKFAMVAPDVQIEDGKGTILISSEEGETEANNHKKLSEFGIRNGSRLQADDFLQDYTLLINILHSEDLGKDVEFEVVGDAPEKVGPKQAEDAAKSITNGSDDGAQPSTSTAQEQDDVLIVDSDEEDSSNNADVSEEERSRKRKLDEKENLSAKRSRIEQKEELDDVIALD

[14] = molecular target: Tyrosyl-DNA phosphodiesterase 2 (Homo sapiens, UniProt O95551); assay: human TDP2 enzyme inhibitors, dose response, biochemical, epi absorbance, IC50 (AID 743297)
Tyrosyl-DNA phosphodiesterase 2, sequence (O95551 whole entry): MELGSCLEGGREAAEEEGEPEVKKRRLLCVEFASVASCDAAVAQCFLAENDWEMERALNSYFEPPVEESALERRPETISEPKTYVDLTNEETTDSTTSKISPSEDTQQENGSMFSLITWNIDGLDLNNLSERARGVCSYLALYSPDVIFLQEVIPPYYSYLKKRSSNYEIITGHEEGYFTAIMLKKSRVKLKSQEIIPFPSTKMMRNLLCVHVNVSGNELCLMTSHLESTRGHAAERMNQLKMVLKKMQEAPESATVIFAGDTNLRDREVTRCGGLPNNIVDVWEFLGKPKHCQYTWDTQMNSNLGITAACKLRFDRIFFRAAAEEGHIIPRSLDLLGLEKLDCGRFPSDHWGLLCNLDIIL

[15] = molecular target: T4, Apoptotic protease-activating factor 1 (Homo sapiens, UniProt O14727); format: functional
T4 sequence (O14727 whole entry): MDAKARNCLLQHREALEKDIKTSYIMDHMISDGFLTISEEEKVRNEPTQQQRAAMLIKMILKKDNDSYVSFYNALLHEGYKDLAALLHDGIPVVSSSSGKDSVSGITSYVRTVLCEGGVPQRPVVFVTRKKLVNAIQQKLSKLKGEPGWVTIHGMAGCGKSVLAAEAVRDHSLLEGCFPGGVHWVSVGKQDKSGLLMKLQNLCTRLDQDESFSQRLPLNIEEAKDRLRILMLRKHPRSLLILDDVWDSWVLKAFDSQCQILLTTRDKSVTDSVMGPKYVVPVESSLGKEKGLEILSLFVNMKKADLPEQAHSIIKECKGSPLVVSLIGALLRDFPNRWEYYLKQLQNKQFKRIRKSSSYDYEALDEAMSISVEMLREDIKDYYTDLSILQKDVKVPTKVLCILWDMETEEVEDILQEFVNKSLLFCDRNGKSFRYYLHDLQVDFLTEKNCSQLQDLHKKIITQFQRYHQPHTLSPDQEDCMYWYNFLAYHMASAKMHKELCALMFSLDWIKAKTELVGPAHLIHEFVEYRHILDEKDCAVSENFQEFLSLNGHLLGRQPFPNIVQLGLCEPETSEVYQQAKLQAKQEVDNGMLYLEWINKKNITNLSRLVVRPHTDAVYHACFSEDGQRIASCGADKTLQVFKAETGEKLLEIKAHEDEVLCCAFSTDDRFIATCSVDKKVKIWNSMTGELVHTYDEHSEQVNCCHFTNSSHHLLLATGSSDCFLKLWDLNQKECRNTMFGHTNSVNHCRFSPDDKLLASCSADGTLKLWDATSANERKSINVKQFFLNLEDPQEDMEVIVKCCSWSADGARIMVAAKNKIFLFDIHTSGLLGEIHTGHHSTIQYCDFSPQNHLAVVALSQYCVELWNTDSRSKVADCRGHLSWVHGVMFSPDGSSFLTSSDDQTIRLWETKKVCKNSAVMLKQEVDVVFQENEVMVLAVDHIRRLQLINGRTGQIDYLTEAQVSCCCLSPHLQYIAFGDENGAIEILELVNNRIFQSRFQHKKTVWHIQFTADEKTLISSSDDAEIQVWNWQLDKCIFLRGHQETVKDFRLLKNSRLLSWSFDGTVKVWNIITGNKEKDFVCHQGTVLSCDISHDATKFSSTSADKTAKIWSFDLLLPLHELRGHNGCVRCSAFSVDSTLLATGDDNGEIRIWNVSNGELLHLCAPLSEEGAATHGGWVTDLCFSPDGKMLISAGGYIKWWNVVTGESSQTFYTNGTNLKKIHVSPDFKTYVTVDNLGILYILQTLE

[16] = molecular target: Ras and Rab interactor 1/Tyrosine-protein kinase ABL1 (Homo sapiens, UniProt P00519+Q13671); format: functional;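 further: biochemical TR-FRET dose-response test measuring inhibition of binding between Rin1 and Abl proteins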
[17] = molecular target: T5, Histone-lysine N-methyltransferase NSD2 (Homo sapiens, UniProt O96028); format: biochemical
T5 sequence (O96028 whole entry): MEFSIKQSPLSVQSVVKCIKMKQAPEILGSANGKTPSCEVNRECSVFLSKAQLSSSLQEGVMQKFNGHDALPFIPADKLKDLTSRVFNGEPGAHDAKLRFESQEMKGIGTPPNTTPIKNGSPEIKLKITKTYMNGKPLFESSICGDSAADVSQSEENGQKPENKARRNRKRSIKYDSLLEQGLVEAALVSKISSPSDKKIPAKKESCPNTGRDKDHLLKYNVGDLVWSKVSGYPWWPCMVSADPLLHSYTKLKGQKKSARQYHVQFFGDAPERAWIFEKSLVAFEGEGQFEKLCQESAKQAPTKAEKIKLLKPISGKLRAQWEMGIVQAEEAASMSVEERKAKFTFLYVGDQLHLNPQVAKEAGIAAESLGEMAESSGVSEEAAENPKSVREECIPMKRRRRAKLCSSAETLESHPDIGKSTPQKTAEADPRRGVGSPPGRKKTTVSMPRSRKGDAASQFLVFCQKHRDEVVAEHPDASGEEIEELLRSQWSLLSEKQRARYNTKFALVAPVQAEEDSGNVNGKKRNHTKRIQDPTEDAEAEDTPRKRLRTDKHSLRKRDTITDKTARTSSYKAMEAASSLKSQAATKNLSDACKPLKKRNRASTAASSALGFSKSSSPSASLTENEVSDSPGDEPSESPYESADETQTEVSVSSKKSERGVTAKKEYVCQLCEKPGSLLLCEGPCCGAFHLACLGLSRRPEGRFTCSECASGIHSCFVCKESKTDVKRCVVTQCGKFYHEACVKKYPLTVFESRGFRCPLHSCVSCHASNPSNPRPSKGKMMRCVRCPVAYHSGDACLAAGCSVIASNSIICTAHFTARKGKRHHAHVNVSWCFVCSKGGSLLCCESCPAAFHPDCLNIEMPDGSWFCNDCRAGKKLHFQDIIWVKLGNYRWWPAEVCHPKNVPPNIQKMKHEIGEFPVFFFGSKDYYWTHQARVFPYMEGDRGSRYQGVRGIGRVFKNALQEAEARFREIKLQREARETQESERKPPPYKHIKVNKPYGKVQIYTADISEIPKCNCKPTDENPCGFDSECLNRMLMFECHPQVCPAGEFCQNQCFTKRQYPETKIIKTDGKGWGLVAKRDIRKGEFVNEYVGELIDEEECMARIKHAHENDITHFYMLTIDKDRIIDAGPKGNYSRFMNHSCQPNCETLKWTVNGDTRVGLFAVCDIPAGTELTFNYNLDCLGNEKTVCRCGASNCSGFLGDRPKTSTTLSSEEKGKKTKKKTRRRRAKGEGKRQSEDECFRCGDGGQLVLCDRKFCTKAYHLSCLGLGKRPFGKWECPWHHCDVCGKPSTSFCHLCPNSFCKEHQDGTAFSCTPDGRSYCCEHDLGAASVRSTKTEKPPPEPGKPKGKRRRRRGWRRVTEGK

SUMO-activating enzyme [18] = molecular target: T3, SUMO-activating enzyme; assay: inhibitors of in vitro SUMOylation cascade, primary screen, biochemical, HTRF, uHTS (AID 2006); format: protein-complex assay
[19] = molecular target: Serine/threonine-protein phosphatase PP1-alpha catalytic subunit (Homo sapiens, UniProt P62136); assay: PP1 phosphatase inhibitors, dose response, biochemical, fluorescence (AID 2394)
Serine/threonine-protein phosphatase PP1-alpha catalytic subunit, sequence (P62136 whole entry): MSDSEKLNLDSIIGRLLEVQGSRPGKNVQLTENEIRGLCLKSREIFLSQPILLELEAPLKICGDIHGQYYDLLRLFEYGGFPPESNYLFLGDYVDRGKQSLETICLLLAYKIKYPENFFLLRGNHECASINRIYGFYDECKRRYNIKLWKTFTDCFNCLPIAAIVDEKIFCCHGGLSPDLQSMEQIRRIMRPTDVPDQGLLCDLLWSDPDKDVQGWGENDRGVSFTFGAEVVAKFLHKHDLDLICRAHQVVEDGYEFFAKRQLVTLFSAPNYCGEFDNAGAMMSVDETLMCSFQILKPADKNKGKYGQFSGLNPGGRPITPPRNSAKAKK

[20] = molecular target: T6, Serine/threonine-protein phosphatase (Homo sapiens, UniProt Q9BPW0); assay: PP5 phosphatase inhibitors, dose response, biochemical, fluorescence (AID 2395)
T6 sequence (Q9BPW0 whole entry): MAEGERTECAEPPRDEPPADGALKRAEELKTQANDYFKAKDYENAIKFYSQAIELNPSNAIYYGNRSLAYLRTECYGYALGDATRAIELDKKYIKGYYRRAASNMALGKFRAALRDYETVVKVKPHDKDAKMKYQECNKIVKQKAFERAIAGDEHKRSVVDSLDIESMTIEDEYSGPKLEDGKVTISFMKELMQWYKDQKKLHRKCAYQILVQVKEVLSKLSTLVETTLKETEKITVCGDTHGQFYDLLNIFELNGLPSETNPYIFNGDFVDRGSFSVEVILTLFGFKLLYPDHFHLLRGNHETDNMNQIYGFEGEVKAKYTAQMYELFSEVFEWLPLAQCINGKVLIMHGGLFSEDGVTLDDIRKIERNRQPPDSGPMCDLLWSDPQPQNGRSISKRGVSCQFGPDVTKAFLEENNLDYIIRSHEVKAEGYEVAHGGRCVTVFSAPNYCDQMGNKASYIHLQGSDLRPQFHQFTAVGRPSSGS

[21] = molecular target: T2, Sentrin-specific protease 8; format: functional; remark: listed apart in the source

Cytochrome P450 2C9, sequence (P11712 whole entry): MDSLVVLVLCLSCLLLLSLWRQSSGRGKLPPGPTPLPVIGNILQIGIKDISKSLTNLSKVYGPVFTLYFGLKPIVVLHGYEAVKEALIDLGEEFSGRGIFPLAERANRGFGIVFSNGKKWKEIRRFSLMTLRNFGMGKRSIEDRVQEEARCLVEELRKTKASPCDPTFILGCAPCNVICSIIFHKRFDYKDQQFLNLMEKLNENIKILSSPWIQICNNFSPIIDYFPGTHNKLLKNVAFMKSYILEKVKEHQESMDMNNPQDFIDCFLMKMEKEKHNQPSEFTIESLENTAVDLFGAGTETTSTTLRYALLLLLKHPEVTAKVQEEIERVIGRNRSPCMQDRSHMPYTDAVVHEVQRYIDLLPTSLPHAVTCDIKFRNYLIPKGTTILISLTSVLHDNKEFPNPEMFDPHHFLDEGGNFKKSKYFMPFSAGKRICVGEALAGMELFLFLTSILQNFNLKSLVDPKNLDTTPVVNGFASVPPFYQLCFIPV
Cytochrome P450 2D6, sequence (P10635 whole entry): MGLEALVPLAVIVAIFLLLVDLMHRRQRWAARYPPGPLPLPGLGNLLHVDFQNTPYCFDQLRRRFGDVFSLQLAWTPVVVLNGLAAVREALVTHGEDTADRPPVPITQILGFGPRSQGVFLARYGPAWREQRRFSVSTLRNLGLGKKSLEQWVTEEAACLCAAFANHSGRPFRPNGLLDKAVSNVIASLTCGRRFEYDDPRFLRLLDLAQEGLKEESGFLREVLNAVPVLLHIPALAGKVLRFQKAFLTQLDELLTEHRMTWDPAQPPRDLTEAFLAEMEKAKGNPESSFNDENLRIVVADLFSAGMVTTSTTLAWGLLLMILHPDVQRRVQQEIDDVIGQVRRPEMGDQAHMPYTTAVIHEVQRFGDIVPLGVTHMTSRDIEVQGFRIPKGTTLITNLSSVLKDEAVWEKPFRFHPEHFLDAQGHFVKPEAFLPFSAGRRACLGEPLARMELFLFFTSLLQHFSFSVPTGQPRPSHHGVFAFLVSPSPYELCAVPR

## COc1ccc(/C=C/C(=O)Oc2cccc(/C=N/NC(=O)COc3c(C)cccc3C)c2)cc1
Cytochrome P450 2D6
  AC50: inconclusive
Cytochrome P450 2C9
  AC50: 3.55 µM (inconclusive)
[1]
  IC50: 6.28 µM (active)
[2]
  IC50: > 111 µM (not active)

## Cc1ccc(CCN2CC(C(=O)NCCCN3CCCCCC3)CC2=O)cc1 (stereo not given)
[3]
  IC50: 11.1 µM (active)

## O=C(Cc1ccc([N+](=O)[O-])cc1)Nc1ccc(Oc2ccccc2)cc1
NADPH oxidase 1
  IC50: > 17 µM (not active)

## CCCN1CC=C2C(C#N)=C(N)C(C#N)(C#N)C(c3cccc(OC)c3OC)C2C1 (stereo not given)
Bcl-2-related protein A1 [4]
  IC50: > 100 µM (not active)
Bcl-2-related protein A1 [5]
  IC50: > 100 µM (not active)

## CC(=O)Nc1ccc(OCC(=O)c2cc(C)n(Cc3ccccc3)c2C)cc1
[6]
  EC50: > 30 µM (not active)

## O=c1c2ccccc2ncn1/N=C/c1ccccc1
[7]
  EC50: 2.06 µM (active)
[8]
  EC50: < 0.1 µM (active)
[9]
  EC50: < 0.1 µM (active)
[10]
  EC50: 1.16 µM (active)
[11]
  EC50: 0.53 µM (active)
H4
  EC50: 0.525 µM (active)

## CC(=O)C1=C(C)OC2(O)c3ccccc3C(=O)C12O (stereo not given)
[12]
  IC50: 0.754 µM (active)
SUMO-activating enzyme [13]
  IC50: 3.09 µM (active)
[14]
  IC50: 7.52 µM (active)
[15]
  IC50: 8.19 µM (active)
[16]
  IC50: > 73.4 µM (inactive)
[17]
  AC50: 4.82 µM (active)
SUMO-activating enzyme [18]
  IC50: 16.6 µM (active)
[19]
  IC50: > 67 µM (not active)
[20]
  IC50: > 2.48 µM (active)
[21]
  IC50: 0.455 µM (active)
